Columns and labels:
[1] = tested on: KLK3 mRNA (AR target gene) in C4-2 cells; test: Inhibition of R1881 activation of KLK3 mRNA in C4-2 cells; format: cell-based; conditions: hormone depleted 96 h, R1881 1 nM, compound 1-10 μM, 48 h, FIG. 3A
Protocol: (§1) Cell Culture and Reagents. LNCaP and 22Rv1 cell lines were from American Type Culture Collection (Manassas, Va.). C4-2 cells were kindly provided by Dr. Edwin Sanchez (University of Toledo). […] R1881 was kindly provided by Dr. Stephan Patrick (Karmanos Cancer Institute). All experiments were conducted using phenol-red free growth media.
(§2) RNA isolation, Reverse Transcription, and Real Time PCR. Total RNA was isolated from cells using the RNeasy Mini Kit (Qiagen). Reverse transcription PCR was then performed using 500 ng of total RNA with random primers and using the high-capacity complementary DNA Archive kit (Applied Biosystems). The complementary DNA from this reaction was measured using quantitative real time PCR using the StepONE Plus Real Time PCR system (Life Technologies Corporation, Carlsbad, Calif.). All reactions were performed in triplicate and normalized to glyceraldehyde-3-phosphate-dehydrogenase values in the same samples.

[2] = tested on: TMPRSS2 mRNA (AR target gene) in C4-2 cells; test: Inhibition of R1881 activation of TMPRSS2 mRNA in C4-2 cells; format: cell-based; conditions: hormone depleted 96 h, R1881 1 nM, compound 1-10 μM, 48 h, FIG. 3B
Protocol: as §1, §2

C4-2 cells = test: MTT cell viability assay, C4-2 cells; format: cell-based; conditions: for EC50: C4-2, 72 h, 0.1 μM-10 μM, read-out: EC50, inhibition of C4-2 cell growth; for cell death (viable cells below the number on Day 0): C4-2 cells, 5 μM, MTT Day 3 relative to Day 0, FIG. 6C
Protocol: (§3) (6A) C4-2 cells were seeded in 96-well plates and 24 h later, they were treated with the indicated compounds (0.1 μM-10 μM) or with vehicle (DMSO). Cell viability was measured by the MTT assay on Days 0 and 3 of treatment. EC50 values were calculated from nonlinear regression plots using GraphPad Prism5 software. […] Cell viability was measured by the MTT assay on Days 0 and 3 of treatment. […] Cell viability was measured by the MTT assay on Days 0 and 3 of treatment. […] (6D) 22Rv1 cells were infected with AR shRNA lentivirus, or control shRNA. 72 h after infection, cells were plated and viable cells were measured by the MTT assay on the indicated days (6D, bottom). Cells were also harvested for western blot analysis and probed with antibody to AR, which was also reactive with the AR splice variant AR-V7 (6D, top). (6E) 22Rv1 cells were seeded in 96-well plates and 24 h later, they were treated with the indicated compounds (0.1 μM-10 μM) or with vehicle (DMSO). Cell viability was measured by the MTT assay on Days 0 and 3 of treatment. EC50 values were calculated from nonlinear regression plots using GraphPad Prism5 software.
(§4) Cell Proliferation Assay. Cells were trypsinized and 6000 cells/well were seeded in 96-well plates coated with poly-D-lysine. The cells were seeded in phenol red-free medium supplemented with 10% FBS, 100 units/ml penicillin, 100 μg/ml streptomycin, 2 mM L-glutamine mixture and sodium pyruvate (1 mM) for C4-2 cells and phenol red-free medium supplemented with 10% FBS, 100 units/ml penicillin, 100 μg/ml streptomycin and 2 mM L-glutamine mixture for 22Rv1 cells. The cells were grown at 37° C. in 5% CO2. Twenty four hours after seeding in the 96-well plates, the cells were treated with indicated compound or DMSO (vehicle). The culture medium was not changed during the time course of the assay. On Day zero and on Day 3, cell viability was determined using the MTT assay. MTT (10 μL, 5 mg/mL) was added to each well and incubated for 2 h at 37° C. The formazan crystal sediments were dissolved in 100 μL of DMSO, and the absorbance at 570 nm was measured using the BioTek Synergy 2 Microplate Reader (BioTek, Winooski, Vt.). […] IC50 values were calculated from nonlinear […] plots using GraphPad Prism5 software.

22Rv1 cells = test: MTT cell viability assay, 22Rv1 cells; format: cell-based; conditions: Day 3, 0.1 μM-10 μM, FIG. 6E; for EC50: Homo sapiens, 22Rv1, 72 h, read-out: EC50, inhibition of growth of 22Rv1 cells
Protocol: as §3, §4

p21 mRNA in LNCaP cells = test: p21 mRNA induction in LNCaP cells; conditions: 10 μM, 48 h, FIG. 5A
[3] = tested on: 55 KDa polypeptide (putative Hsp90 fragment); test: Western blot of acetylated lysine in C4-2 cells; conditions: 24 h, acetylated lysine antibody, FIG. 4C
Protocol: Cells were then harvested for western blot analysis using antibody to AR (4A), HSP90 (4B), Acetyl-Lysine (4C) or GAPDH (loading control). ImageJ software was used to determine the intensities of the bands relative to the vehicle control for each protein. The values were then divided by the values for GAPDH within the same samples.
Western Blot Analysis. Cells were washed once with phosphate buffered saline (PBS) and then lysed with RIPA buffer (150 mM NaCl, 1% Nonidet P-40, 0.5% sodium deoxycholate, 0.1% SDS, 50 mM Tris of pH 8.0) containing a protease inhibitor cocktail (Pierce, Thermo Fisher Scientific). The cell lysates were then incubated on ice for 40 minutes. Total protein concentrations were estimated using the Bradford Assay (Bio-Rad). Protein samples (10-40 ug) were heated at 95° C. for 5 minutes and resolved by electrophoresis on 8% polyacrylamide-SDS gels and electrophoretically transferred to PVDF membranes (Millipore, Billerica, Mass.). The membranes were then probed overnight at 4° C. with the appropriate primary antibody followed by the appropriate horseradish peroxidase-conjugated secondary antibody.

Compound | inhibition of activation of KLK3 by R1881 [1] | inhibition of activation of TMPRSS2 by R1881 [2] | effect on C4-2 cell growth (C4-2 cells; MTT, Day 3, up to 10 μM, FIG. 6A) | effect on growth of 22Rv1 cells (22Rv1 cells) | p21 mRNA expression (p21 mRNA in LNCaP cells) | hyper-acetylation of a 55 KDa polypeptide [3] | EC50 (C4-2 cells; MTT, Day 3, FIG. 6A) | cell death (viable cells below the number on Day 0) (C4-2 cells) | EC50 (22Rv1 cells)
CNC(=O)c1ccc(N2C(=S)N(c3ccc(C#N)c(C(F)(F)F)c3)C(=O)C2(C)C)cc1F [Enz, Enzalutamide, reference compound] | progressive inhibition at higher doses | progressive inhibition at higher doses | could not appreciably affect growth even at a concentration of 10 μM | not | had no effect | not |  |  | 
CC1(C)C(=O)N(c2ccc(C#N)c(C(F)(F)F)c2)C(=S)N1c1ccc(/C=C/C(=O)NO)c(F)c1 [Compound 1005, (E)-3-(4-(3-(4-cyano-3-(trifluoromethyl)phenyl)-5,5-dimethyl-4-oxo-2-thioxoimidazolidin-1-yl)-2-fluorophenyl)-N-hydroxyacrylamide] | better inhibitors of gene activation by androgen compared with either Enz or SAHA | better inhibitors of gene activation by androgen compared with either Enz or SAHA |  |  | induced p21 to a greater extent than SAHA | hyper-acetylation of a 55 KDa polypeptide | 3.29 µM | caused cell death | 4.17 µM
CC1(C)C(=O)N(c2ccc(C#N)c(C(F)(F)F)c2)C(=S)N1c1ccc(C(=O)NCCCCCCC(=O)NO)c(F)c1 [Compound 2-75, 4-(3-(4-cyano-3-(trifluoromethyl)phenyl)-5,5-dimethyl-4-oxo-2-thioxoimidazolidin-1-yl)-2-fluoro-N-(7-(hydroxyamino)-7-oxoheptyl)benzamide] | better inhibitors of gene activation by androgen compared with either Enz or SAHA | better inhibitors of gene activation by androgen compared with either Enz or SAHA |  |  | induced p21 to a greater extent than SAHA | hyper-acetylation of a 55 KDa polypeptide | 1.62 µM | caused cell death | 4.68 µM
